Data reported in patent US9221834B2 (Merck Sharp & Dohme Corp., priority 2010, dated 2015).

Biological target: T1, recombinant CETP (rCETP) (Homo sapiens, UniProt P11597)
T1 sequence (P11597 18-493): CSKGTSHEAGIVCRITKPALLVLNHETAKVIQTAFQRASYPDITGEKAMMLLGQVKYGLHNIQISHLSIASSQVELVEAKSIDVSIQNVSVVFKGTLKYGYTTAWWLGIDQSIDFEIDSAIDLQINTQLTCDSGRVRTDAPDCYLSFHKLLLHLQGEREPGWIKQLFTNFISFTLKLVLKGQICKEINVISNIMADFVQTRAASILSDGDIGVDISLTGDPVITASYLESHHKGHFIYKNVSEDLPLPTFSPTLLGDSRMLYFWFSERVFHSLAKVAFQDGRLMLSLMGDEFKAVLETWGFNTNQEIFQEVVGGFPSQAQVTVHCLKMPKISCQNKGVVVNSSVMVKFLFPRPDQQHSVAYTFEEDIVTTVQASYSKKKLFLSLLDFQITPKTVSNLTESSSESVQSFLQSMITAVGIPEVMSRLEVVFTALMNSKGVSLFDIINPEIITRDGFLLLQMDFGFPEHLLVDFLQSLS
Test: RTA assay using recombinant CETP (2% RTA)
Format: biochemical
Settings: RTA assay in 2% human serum; read-out: IC50
Description: In Vitro Radioactive Assays of CETP-Catalyzed CE and TG Transfer (RTA Assay)
Reagents and sources are: [3H] cholesteryl oleate (GE #TRK.886), [3H]
Both assays measure the transfer of [3H] cholesteryl oleate or [3H]triolein from exogenous LDL to HDL.
After a brief vortex, the solution is sonicated until clear and mixed with 20 mL of fresh human serum. The mixture is incubated overnight at 37° C. […] Once isolated the particles are dialyzed 3× in CETP buffer (50 mM Tris, pH 7.4, 100 mM NaCl, 1 mM EDTA). Human HDL is purchased from Intracel and used as the acceptor particles.
Transfer assays are performed in a 96-well v-bottom polypropylene plate. […] 1 μL of each test compound diluted in DMSO is added to 47 μL of assay cocktail per well and incubated at 37° C. for 1 hour. To initiate the transfer reaction, 2 μL radiolabeled LDL is added. After an additional 60 min of incubation at 37° C., the transfer action is terminated by precipitation of LDL with an equal volume of 20% W/V PEG 8000. The plates are centrifuged at 2000 rpm for 30 minutes at 4° C. A 40 μL aliquot of the HDL-containing supernatant is transferred to a Packard Optiplate with 200 μL of MicroScint 20. After mixing, plates are counted by liquid scintillation. Counts present in the supernatant for blanks (wells containing only HDL acceptor, CETP buffer and DMSO) are subtracted from those containing test compounds and used to correct for non-specific transfer.
Comparison of the counts of samples with inhibitors to an uninhibited (DMSO only) positive control yield a percent inhibition. A plot of percent inhibition vs. log of inhibitor concentration, fit to a Sigmoidal 4 parameter equation is used to calculate IC50.

| SMILES | IC50 [nM] |
| --- | --- |
| COc1ccc([C@@H]2C[C@H]2C(=O)O)cc1-c1ccc(N2CCC2)nc1CN1C(=O)O[C@H](c2cc(C(F)(F)F)cc(C(F)(F)F)c2)[C@@H]1C [Example 72] | 7 |
| COc1ccc(-c2ccc(C(=O)O)cn2)cc1-c1ccc(N2CCC2)nc1CN1C(=O)O[C@H](c2cc(C(F)(F)F)cc(C(F)(F)F)c2)[C@@H]1C [Example 121] | 28 |
| COC(=O)c1ccc(-c2cc(-c3cnc(N4CC(F)(F)C4)nc3CN3C(=O)O[C@H](c4cc(C(F)(F)F)cc(C(F)(F)F)c4)[C@@H]3C)c(OC)cc2F)c(C)c1 [Example 132] | 4 |
| COc1ccc(CCC(=O)O)cc1-c1ccc(N2CCC2)nc1CN1C(=O)O[C@H](c2cc(C)cc(C)c2)[C@@H]1C [Example 228, 3-[3-(6-azetidin-1-yl-2-{[(4S,5R)-5-(3,5-dimethylphenyl)-4-methyl-2-oxo-1,3-oxazolidin-3-yl]methyl}pyridin-3-yl)-4-methoxyphenyl]propanoic acid] | 47 |
| COc1ccc(C(C)(C)CC(=O)O)cc1-c1cnc(N2CCC2)nc1CN1C(=O)O[C@H](c2cc(C(F)(F)F)cc(C(F)(F)F)c2)[C@@H]1C [Example 175] | 72 |
| COc1ccc([C@H]2CC[C@H](C(=O)OC)CC2)cc1-c1ccc(N2CCC2)nc1CN1C(=O)O[C@H](c2cc(C)cc(C)c2)[C@@H]1C [Example 200] | 55 |
| C[C@H]1[C@@H](c2cc(F)cc(C(F)(F)F)c2)OC(=O)N1Cc1nc(N2CC(F)(F)C2)ncc1-c1cc([C@H]2CC[C@H](C(=O)O)CC2)ccc1Cl [Example 291] | 49 |
| COc1ccc(CC#N)cc1-c1ccc(N2CCC2)nc1CN1C(=O)O[C@H](c2cc(C(F)(F)F)cc(C(F)(F)F)c2)[C@@H]1C [Example 256, {3-[6-azetidin-1-yl-2-({(4S,5R)-5-[3,5-bis(trifluoromethyl)phenyl]-4-methyl-2-oxo-1,3-oxazolidin-3-yl}methyl)pyridin-3-yl]-4-methoxyphenyl}acetonitrile] | 5 |
| CCOC(=O)C[C@@H]1CCc2cc(OC)c(-c3ccc(N4CCC4)nc3CN3C(=O)O[C@H](c4cccc(C(F)(F)F)c4)[C@@H]3C)cc21 [Example 204] | 114 |
| COc1c(F)cc(-n2ncc(C(=O)O)c2C(F)(F)F)cc1-c1cnc(N2CC(F)(F)C2)nc1CN1C(=O)O[C@H](c2cc(C(F)(F)F)cc(C(F)(F)F)c2)[C@@H]1C [Example 187] | 4 |
| COC(=O)c1ccc(-c2cc(-c3cnc(N4CC(OC)C4)nc3CN3C(=O)O[C@H](c4cc(C(F)(F)F)cc(C(F)(F)F)c4)[C@@H]3C)c(OC)cc2F)c(C)c1 [Example 136] | 55 |
| COC(=O)CCc1ccc(OC)c(-c2cnc(N3CC(F)C3)nc2CN2C(=O)O[C@H](c3cc(C(F)(F)F)cc(C(F)(F)F)c3)[C@@H]2C)c1 [Example 143] | 7 |
| COc1ccc(CCC(=O)O)cc1-c1c(CN2C(=O)O[C@H](c3cc(C(F)(F)F)cc(C(F)(F)F)c3)[C@@H]2C)nc(N2CCC2)c(Br)c1C [Example 70] | 4 |
| COc1ccc([C@@H]2CC[C@@H](C(=O)O)C2)cc1-c1ccc(N2CCC2)nc1CN1C(=O)O[C@H](c2cc(C(F)(F)F)cc(C(F)(F)F)c2)[C@@H]1C (single isomer, unassigned) [Example 239] | 7 |
| Cc1cc(C(=O)O)ccc1-c1cc(F)cc(-c2ccc(N3CCC3)nc2CN2C(=O)O[C@H](c3cc(C(F)(F)F)cc(C(F)(F)F)c3)[C@@H]2C)c1 [Example 288] | 11 |
| COc1ccc([C@H]2CC[C@H](C(=O)O)CC2)cc1-c1c(C)cc(N2CCC2)nc1CN1C(=O)O[C@H](c2cc(F)cc(C(F)(F)F)c2)[C@@H]1C [Example 292] | 7 |
| COc1ccc(CC(C)(C)C(=O)OC(C)(C)C)cc1-c1ccc(N2CCC2)nc1CN1C(=O)O[C@H](c2cccc(C(F)(F)F)c2)[C@@H]1C [Example 196] | 381 |
| COc1ccc(-c2cc(C(=O)O)co2)cc1-c1ccc(N2CCC2)nc1CN1C(=O)O[C@H](c2cc(C(F)(F)F)cc(C(F)(F)F)c2)[C@@H]1C [Example 113] | 29 |

| SMILES | IC50 [nM] |
| --- | --- |
| COc1ccc([C@@H]2C[C@H]2C(=O)O)cc1-c1ccc(N2CCC2)nc1CN1C(=O)O[C@H](c2cccc(C)c2)[C@@H]1C [Example 234] | 267 |
| COC(=O)C[C@H]1C[C@@H](c2ccc(OC)c(-c3ccc(N4CCC4)nc3CN3C(=O)O[C@H](c4cc(C(F)(F)F)cc(C(F)(F)F)c4)[C@@H]3C)c2)C1 [Example 25] | 14 |
| COC(=O)CCc1ccc(OC)c(-c2cnc(N3CC(F)(F)C3)nc2CN2C(=O)O[C@H](c3cc(C(F)(F)F)cc(C(F)(F)F)c3)[C@@H]2C)c1 [Example 144] | 17 |
| COc1ccc([C@H]2CC[C@H](C(=O)O)CC2)cc1-c1ccc(N2CC(F)(F)C2)nc1CN1C(=O)O[C@H](c2cc(F)cc(C(F)(F)F)c2)[C@@H]1C [Example 283, trans-4-{3-[6-(3,3-difluoroazetidin-1-yl)-2-({(4S,5R)-5-[3-fluoro-5-(trifluoromethyl)phenyl]-4-methyl-2-oxo-1,3-oxazolidin-3-yl}methyl)pyridin-3-yl]-4-methoxyphenyl}cyclohexanecarboxylic acid] | 9 |
| CCOC(=O)CCc1ccc(OC)c(-c2ccc(N3CCC3)nc2CN2C(=O)O[C@H](c3cccc(C)c3)[C@@H]2C)c1 [Example 199] | 237 |
| Cc1cc(C(=O)O)ccc1-c1cc(-c2cnc(N3CC(F)(F)C3)nc2CN2C(=O)O[C@H](c3cc(C(F)(F)F)cc(C(F)(F)F)c3)[C@@H]2C)ccc1F [Example 184, 5′-[4-({(4S,5R)-5-[3,5-bis(trifluoromethyl)phenyl]-4-methyl-2-oxo-1,3-oxazolidin-3-yl}methyl)-2-(3,3-difluoroazetidin-1-yl)pyrimidin-5-yl]-2′-fluoro-2-methylbiphenyl-4-carboxylic acid] | 12 |
| COc1ccc(CCC(=O)O)cc1-c1cnc(N2CC(OC)C2)nc1CN1C(=O)O[C@H](c2cc(C(F)(F)F)cc(C(F)(F)F)c2)[C@@H]1C [Example 176] | 415 |
| COc1ccc([C@H]2CC[C@H](C(=O)O)CC2)cc1-c1cnc(N2CC(F)C2)nc1CN1C(=O)O[C@H](c2cc(C(F)(F)F)cc(C(F)(F)F)c2)[C@@H]1C [Example 185] | 12 |
| COc1ccc([C@H]2C[C@H](CC(=O)O)C2)cc1-c1ccc(N2CCC2)nc1CN1C(=O)O[C@H](c2cc(C(F)(F)F)cc(C(F)(F)F)c2)[C@@H]1C [Example 92] | 5 |
| COc1ccc([C@H]2C[C@@H]2C(=O)O)cc1-c1ccc(N2CC(F)(F)C2)nc1CN1C(=O)O[C@H](c2cc(C(F)(F)F)cc(C(F)(F)F)c2)[C@@H]1C [Example 67] | 14 |
| Cc1cc(C(=O)O)ccc1-c1ccc(C)c(-c2cnc(N3CC(F)(F)C3)nc2CN2C(=O)O[C@H](c3cc(C(F)(F)F)cc(C(F)(F)F)c3)[C@@H]2C)c1 [Example 178] | 6 |
| CCOC(=O)[C@@H]1C[C@@H]1c1ccc(OC)c(-c2ccc(N3CCC3)nc2CN2C(=O)O[C@H](c3cc(F)cc(F)c3)[C@@H]2C)c1 [Example 18] | 62 |
| COc1ccc([C@H]2CC[C@H](C(=O)OC)CC2)cc1-c1ccc(N2CCC2)nc1CN1C(=O)O[C@H](c2cccc(C(F)(F)F)c2)[C@@H]1C [Example 194] | 145 |
| COc1ccc([C@H]2C[C@@H](C(=O)OC)C2)cc1-c1c(C)cc(N2CCC2)nc1CN1C(=O)O[C@H](c2cc(C(F)(F)F)cc(C(F)(F)F)c2)[C@@H]1C (single isomer, unassigned) [Example 41] | 4 |
| COC(=O)CCc1ccc(OC)c(-c2c(C)nc(N3CC(F)(F)C3)nc2CN2C(=O)O[C@H](c3cc(C(F)(F)F)cc(C(F)(F)F)c3)[C@@H]2C)c1 [Example 139, Methyl 3-{3-[4-({(4S,5R)-5-[3,5-bis(trifluoromethyl)phenyl]-4-methyl-2-oxo-1,3-oxazolidin-3-yl}methyl)-2-(3,3-difluoroazetidin-1-yl)-6-methylpyrimidin-5-yl]-4-methoxyphenyl}propanoate] | 13 |
| COc1ccc(-c2ccc(C(=O)O)cc2C)cc1-c1ccc(N2CCC2)nc1CN1C(=O)O[C@H](c2cccc(C(F)(F)F)c2)[C@@H]1C [Example 235] | 6 |
| COC(=O)CCc1ccc(OC)c(-c2ccc(N3CCC3)nc2CN2C(=O)O[C@H](c3ccc(F)c(F)c3)[C@@H]2C)c1 [Example 11] | 186 |
| COC(=O)c1ccc(-c2ccc(OC)c(-c3ccc(N4CCC4)nc3CN3C(=O)O[C@H](c4cc(C(F)(F)F)cc(C(F)(F)F)c4)[C@@H]3C)c2)s1 [Example 48] | 65 |
